Source: the Biogen ADME set (Fang et al. 2023)
Converted amounts (≈) assume the structure as drawn.

Conditions: for aqueous solubility: pH 6.8

| SMILES | MDR1-MDCK efflux ratio | intrinsic clearance, human liver microsomes | intrinsic clearance, rat liver microsomes | aqueous solubility | fraction unbound, human plasma | fraction unbound, rat plasma |
| --- | --- | --- | --- | --- | --- | --- |
| C#CCOc1ccc(OC)cc1C(N)=O | 0.717 | 13.8 mL/min/kg | 73.3 mL/min/kg | – | – | – |
| CC1(CNC(=O)c2cncc(C3CCNCC3)n2)CCCO1 (stereo not given) | – | ≤ 4.74 mL/min/kg | 21.3 mL/min/kg | – | 0.974 | 0.912 |
| Cc1ccc(C(=O)Nc2ccccc2C#N)cc1 | – | 88.2 mL/min/kg | 173 mL/min/kg | 10.4 µg/mL (≈ 43.9 µM) | – | – |
| Nc1ccc2c(c1)ncn2-c1ccccc1 | – | 7.59 mL/min/kg | 25.3 mL/min/kg | – | – | – |
| Cc1cnc(NC(=O)c2cc(S(=O)(=O)N(C)C)ccc2N2CCCC2)s1 | 19.9 | – | – | 0.21 µg/mL (≈ 0.532 µM) | – | – |
| Cn1ccc2c(NC(=O)N3CCCN(C(=O)Oc4ccccc4)CC3)cccc21 | – | 41.8 mL/min/kg | 777 mL/min/kg | 71.9 µg/mL (≈ 183 µM) | – | – |
| CN(C)c1ncncc1NC(=O)c1ccc(C(F)(F)F)nc1 | – | ≤ 4.74 mL/min/kg | ≤ 10.7 mL/min/kg | – | – | – |
| Cc1ccc(C)c(OCCC(=O)N2CCC(n3c(=O)[nH]c4ccccc43)CC2)c1 | – | 421 mL/min/kg | 6460 mL/min/kg | – | – | – |
| CC1(c2ccn[nH]2)CCN(Cc2ccco2)CC1 | 0.904 | ≤ 4.74 mL/min/kg | 76.4 mL/min/kg | 21 µg/mL (≈ 85.5 µM) | – | – |
| Cc1ccccc1CSc1ccc(-c2ccccn2)nn1 | 0.589 | 95.6 mL/min/kg | 537 mL/min/kg | 1.75 µg/mL (≈ 5.96 µM) | – | – |
| CN[C@@H](C)C(=O)N[C@H](C(=O)N1CCC[C@H]1C(=O)Nc1snnc1-c1ccccc1)C1CCCCC1 | 47.8 | – | – | – | – | – |
| CN1CCC[C@@H]1CCO[C@](C)(c1ccccc1)c1ccc(Cl)cc1 | – | 24.8 mL/min/kg | 1090 mL/min/kg | 98.7 µg/mL (≈ 287 µM) | – | – |
| Cn1cc(C#N)cc1-c1nc(C2CC2)nn1CCc1ccccc1 | 0.932 | 184 mL/min/kg | 1870 mL/min/kg | 49.2 µg/mL (≈ 155 µM) | – | – |
| Cc1nc(Cn2ncc3ccccc3c2=O)cs1 | 0.681 | ≤ 4.74 mL/min/kg | 103 mL/min/kg | 45.1 µg/mL (≈ 175 µM) | – | – |
| c1ccc(-c2cc3c(N4CCC(c5ncc[nH]5)CC4)ncnc3s2)cc1 | 17.8 | 117 mL/min/kg | 1550 mL/min/kg | 4.15 µg/mL (≈ 11.5 µM) | – | – |
| COc1ncccc1CNc1c(C#N)cnc2c(C)cc(F)cc12 | – | 156 mL/min/kg | 1250 mL/min/kg | – | – | – |
| CCNC1=N[C@@H]2[C@@H](O)[C@@H](O)[C@H](CO)O[C@@H]2S1 | – | ≤ 4.74 mL/min/kg | ≤ 10.7 mL/min/kg | – | – | – |
| Cn1cc(Nc2nc(N)nc(-c3cccc(-n4ccc5cc(C6CC6)cc(F)c5c4=O)c3CO)n2)cn1 | 24.3 | ≤ 4.74 mL/min/kg | 37.9 mL/min/kg | – | 0.0709 | 0.0381 |
| COc1ccnc(N2CC(O)(C3CC3)C2)n1 | 0.711 | ≤ 4.74 mL/min/kg | 25.8 mL/min/kg | – | – | – |
| CN(C[C@@H]1COCCO1)S(=O)(=O)Nc1ccc2ccc3ncc(-c4cnn(C)c4)cc3c(=O)c2c1 | 15.5 | 44.3 mL/min/kg | 219 mL/min/kg | 3.36 µg/mL (≈ 6.78 µM) | – | – |
| O=C(Nc1cccc2c(=O)cc(-c3nnn[nH]3)oc12)c1ccc(OCCCCc2ccccc2)cc1 | – | 21.1 mL/min/kg | – | – | 0.0383 | 0.0592 |
| CC(C)n1nnnc1-c1ccc(N)cc1F | 0.63 | ≤ 4.74 mL/min/kg | 40.2 mL/min/kg | 23.5 µg/mL (≈ 106 µM) | – | – |
| O=C(NCc1cccnc1)c1sccc1-c1ccccc1 | 1.1 | 45.2 mL/min/kg | 867 mL/min/kg | 65.6 µg/mL (≈ 223 µM) | – | – |
| O=c1[nH]c2cc3ccccc3c(=O)n2c2sc3c(c12)CCCC3 | – | – | – | 15.2 µg/mL (≈ 47 µM) | – | – |

The remaining lines, values ahead:

| MDR1-MDCK efflux ratio | intrinsic clearance, human liver microsomes | intrinsic clearance, rat liver microsomes | aqueous solubility | fraction unbound, human plasma | fraction unbound, rat plasma | SMILES |
| --- | --- | --- | --- | --- | --- | --- |
| 2.46 | ≤ 4.74 mL/min/kg | 26.3 mL/min/kg | 38.3 µg/mL (≈ 138 µM) | – | – | O=C(NCc1cccnc1)c1cnn(-c2ccccc2)c1 |
| – | 11.1 mL/min/kg | 240 mL/min/kg | – | – | – | Cc1ccc(C#N)c(NC(=O)CCc2ccccc2)n1 |
| 0.537 | 81.2 mL/min/kg | 788 mL/min/kg | – | – | – | O=c1c2oc3ccccc3c2ncn1Cc1ccc(F)c(F)c1 |
| 16.7 | 134 mL/min/kg | 2500 mL/min/kg | – | – | – | CC(C)N(C)S(=O)(=O)NCCCc1nc2cc(Cl)ccc2[nH]1 |
| – | – | – | 44.5 µg/mL (≈ 170 µM) | – | – | O=C1NC2(CCCC2)C(=O)N1Cc1ccccc1F |
| – | 185 mL/min/kg | 1210 mL/min/kg | 55.7 µg/mL (≈ 176 µM) | – | – | Cc1ccsc1-c1nc(CN(C)CCc2cn[nH]c2)c(C)o1 |
| 18.8 | 6.33 mL/min/kg | 110 mL/min/kg | 45.8 µg/mL (≈ 143 µM) | – | – | CC(C)(C)c1ccc(=O)n(CC2CN(CC3(O)CCCC3)C2)n1 |
| 0.609 | 164 mL/min/kg | 185 mL/min/kg | – | – | – | N#Cc1ccnc(Nc2ccc(F)cc2)c1 |
| 0.742 | 13.3 mL/min/kg | 247 mL/min/kg | 40.8 µg/mL (≈ 135 µM) | – | – | CC1(c2nnc(-c3ccc4c(c3)OCCO4)o2)CCOCC1 |
| 2 | 6.35 mL/min/kg | 553 mL/min/kg | 46.7 µg/mL (≈ 173 µM) | – | – | Cc1ccccc1N(CC(=O)N(C)C)S(C)(=O)=O |
| 1.2 | 62.2 mL/min/kg | 468 mL/min/kg | 60.3 µg/mL (≈ 179 µM) | – | – | O=C(COc1ncnc2ccccc12)NC12CC3CC(CC(C3)C1)C2 |
| 0.809 | 83.2 mL/min/kg | 178 mL/min/kg | 28.3 µg/mL (≈ 141 µM) | – | – | c1ccc(-c2noc(NC3CC3)n2)cc1 |
| 40.6 | 7.73 mL/min/kg | 20.8 mL/min/kg | 36.1 µg/mL (≈ 106 µM) | – | – | CC(C)c1noc2nc(C3CC3)cc(C(=O)N3CCN(C)C(=O)C3)c12 |
| – | 109 mL/min/kg | 144 mL/min/kg | 5.43 µg/mL (≈ 15.6 µM) | – | – | CC(=O)n1c(/C=C2/N=C(c3ccc(F)cc3)OC2=O)cc2ccccc21 |
| 1.65 | – | – | 0.28 µg/mL (≈ 0.712 µM) | – | – | COc1cc(OC)cc(-n2c(S)nnc2COc2cccc3ccccc23)c1 |
| 23.3 | 21.5 mL/min/kg | 284 mL/min/kg | – | – | – | CC(C)Cc1cc(CN2CCN(S(=O)(=O)N3CCOCC3)CC2)n[nH]1 |
| 0.781 | 4.94 mL/min/kg | 21.6 mL/min/kg | 30.5 µg/mL (≈ 120 µM) | – | – | CCc1nnc(Oc2cccnc2)c(C#N)c1CC |
| 1.52 | – | – | 0.38 µg/mL (≈ 1.06 µM) | – | – | Cc1ccc(CC(=O)NCc2cccc(C(=O)Nc3ccccc3)c2)cc1 |
